Test results reported in patent US20230285405A1, “Pharmaceuticals for Treating or Preventing Nidoviruses and Picornaviruses” (priority 2020, published 2023).
Counter-ions that a name gives are not always drawn. Like-named read-outs stand apart in the source and are kept apart here.

What was measured:
OC43 = experiment: Drug screening: OC43 nucleoprotein staining in infected A549-mRuby cells; assay type: cell-based, human beta coronavirus OC43
Description: A549-mRuby cells were seeded (3,000 cells per well) in nine 384-well plates using Multidrop combi. Cells were seeded in a final volume of 30 μl with DMEM+10% BCS. The following day, 20 μl of OC43 were added (MOI 0.3) and incubated at 33° C., 5% CO2 for 1 hour. 50 nl from the Selleck FDA-approved drug library (cat #L1300, Selleck) were added (1:1,000 dilution). Two columns (32 wells) were left uninfected and two columns were treated with DMSO and virus (no drug control). Cells were imaged using the IncuCyte S3 to measure cell numbers at day 0. Cells were incubated for 4 days at 33° C., 5% CO2 and were stained for OC43 nucleoprotein. All the following steps were performed at room temperature. Cells were fixed in 50 μl 4% PFA/PBS for 15 min, blocked with 50 μl 10% BSA+0.5% Triton X-100 in PBS for 30 minutes, stained with 50 μl anti-OC43 (cat #MAB9013, Milipore) diluted 1:2,000 in 2% BSA+0.1% Triton X-100 in PBS for 1 hour, washed with 50 μl PBS three times, stained with anti-mouse-AlexaFluor488 diluted 1:1,000 in 2% BSA+0.1% Triton X-100 in PBS for 1 hour, washed with 50 μl PBS three times and imaged on the IncuCyte S3 (day 4). The screen was performed twice.
(§1) The following parameters were extracted from the images: number of cells at day 0, number of cells at day 4 and total OC43 staining intensity at day 4. For analysis, OC43 staining intensity was normalized to the number of cells in the well and further normalized to the mean of the no drug controls, which was set to 100. […] For each plate, a drug was considered as a putative hit if it reduced OC43 staining by over 3 standard deviations from the mean of the no drug controls. Drugs were considered hits if they were not toxic and reduced OC43 staining by over 3 standard deviations in both repeats.
(§2) A library of 1,900 clinically used drugs was screened, the drugs either approved for human use or having extensive safety data in humans (Phase 2 or 3 clinical trials), for their ability to inhibit OC43 infection of the human lung epithelial cell line A549 (expressing an H2B-mRuby nuclear reporter). One day after plating, cells were infected at an MOI of 0.3, incubated at 33° C. for 1 hour and drugs were added to a final concentration of 10 μM. Cells were then incubated at 33° C. for 4 days, fixed and stained for the presence of the viral nucleoprotein. The cells were imaged at day 0 (following drug addition) and day 4 (after staining) to determine the drugs effect on cell growth and OC43 infection.

A549-mRuby cells = experiment: Drug screening: effect on cell growth (cell number day 4 / day 0); settings: 10 μM drug; for Growth_1: number of cells at day 4 divided by number of cells at day 0 / toxic_1: repeat #1; for Growth_2: number of cells at day 4 divided by number of cells at day 0 / toxic_2: repeat #2
Description: A549-mRuby cells were seeded (3,000 cells per well) in nine 384-well plates using Multidrop combi. Cells were seeded in a final volume of 30 μl with DMEM+10% BCS. The following day, 20 μl of OC43 were added (MOI 0.3) and incubated at 33° C., 5% CO2 for 1 hour. 50 nl from the Selleck FDA-approved drug library (cat #L1300, Selleck) were added (1:1,000 dilution). Two columns (32 wells) were left uninfected and two columns were treated with DMSO and virus (no drug control). Cells were imaged using the IncuCyte S3 to measure cell numbers at day 0. Cells were incubated for 4 days at 33° C., 5% CO2 and were stained for OC43 nucleoprotein. All the following steps were performed at room temperature. […] The screen was performed twice.
as §1, §2

[1] = Betacoronavirus 1, OC43, 96 h, 10 μM drug, MOI 0.3, 4 days, OC43 staining normalized to no-drug controls, mean of the two screen repeats, read-out: OC43_mean
[2] = Betacoronavirus 1, OC43, 96 h, 10 μM drug, MOI 0.3, 4 days, normalized to no-drug controls in the same plate, repeat #1, read-out: OC43_1: % staining of OC43 in screen repeat #1
[3] = Betacoronavirus 1, OC43, 96 h, 10 μM drug, MOI 0.3, 4 days, normalized to no-drug controls in the same plate, repeat #2, read-out: OC43_2: % staining of OC43 in screen repeat #2

Compound	hit_1 (OC43; 10 μM drug, repeat #1)	hit_2 (OC43; 10 μM drug, repeat #2)	activity at 10 µM (OC43; [1]) [%]	activity at 10 µM (OC43; [2]) [%]	activity at 10 µM (OC43; [3]) [%]	Growth_1: number of cells at day 4 divided by number of cells at day 0 (A549-mRuby cells)	toxic_1 (A549-mRuby cells)	Growth_2: number of cells at day 4 divided by number of cells at day 0 (A549-mRuby cells)	toxic_2 (A549-mRuby cells)	activity at 10 µM (OC43; Betacoronavirus 1, OC43, 96 h, read-out: OC43_mean) [%]	activity at 10 µM (OC43; Betacoronavirus 1, 96 h, 10 μM drug, MOI 0.3, 4 days, OC43 staining normalized to no-drug controls, mean of the two screen repeats, read-out: OC43_mean) [%]	OC43_mean (OC43; 10 μM drug, MOI 0.3, 4 days, OC43 staining normalized to no-drug controls, mean of the two screen repeats) [%]	OC43_1: % staining of OC43 in screen repeat #1 (OC43; 10 μM drug, MOI 0.3, 4 days, normalized to no-drug controls in the same plate, repeat #1) [%]	OC43_2: % staining of OC43 in screen repeat #2 (OC43; 10 μM drug, MOI 0.3, 4 days, normalized to no-drug controls in the same plate, repeat #2) [%]
CNCCCN1c2ccccc2CCc2ccccc21 [Desipramine Hydrochloride]	1	1	21.8	20	23.7	4.4	0	3.9	0	–	–	–	–	–
O=C(Nc1ccccc1)OCC(CN1CCCCC1)OC(=O)Nc1ccccc1 (stereo not drawn) [Diperodon HCl]	1	1	42.9	24.2	61.6	4.6	0	4.4	0	–	–	–	–	–
CN1CCC(OC(c2ccccc2)c2ccccc2)CC1 [Diphenylpyraline HCl]	1	1	–	33.2	51.6	6.0	0	4.2	0	42.4	–	–	–	–
COc1cc2nc(N3CCN(C(=O)C4COc5ccccc5O4)CC3)nc(N)c2cc1OC (stereo not drawn) [Doxazosin Mesylate]	1	1	29.7	50.1	9.2	5.2	0	4.9	0	–	–	–	–	–
CN(C)CCC=C1c2ccccc2COc2ccccc21 [Doxepin HCl]	1	1	32.6	29.2	36.1	4.9	0	5.7	0	–	–	–	–	–
COc1cc2c(cc1OC)CN(CCc1ccc(NC(=O)c3cccc4c(=O)c5cccc(OC)c5[nH]c34)cc1)CC2 [Elacridar (GF120918), Elacridar]	1	1	31.4	24.4	38.3	4.6	0	5.8	0	–	–	–	–	–
CCCCCCCC(=O)N[C@H](CN1CCCC1)[C@H](O)c1ccc2c(c1)OCCO2 [Eliglustat]	1	1	–	22.7	20.4	5.5	0	4.8	0	–	21.5	–	–	–
CC(C)(O)CNc1nc(Nc2ccnc(C(F)(F)F)c2)nc(-c2cccc(C(F)(F)F)n2)n1 [Enasidenib (AG-221), Enasidenib]	1	1	26.1	23.3	29	5.2	0	4.8	0	–	–	–	–	–
CCC(=O)O[C@H]1[C@H](O[C@@H]2[C@@H](C)[C@H](O[C@H]3C[C@@](C)(OC)[C@@H](O)[C@H](C)O3)[C@@H](C)C(=O)O[C@H](CC)[C@@](C)(O)[C@H](O)[C@@H](C)C(=O)[C@H](C)C[C@@]2(C)O)O[C@H](C)C[C@@H]1N(C)C [Erythromycin estolate]	1	1	20.1	24.2	15.9	4.5	0	4.8	0	–	–	–	–	–
CC[C@H]1OC(=O)[C@H](C)[C@@H](O[C@H]2C[C@@](C)(OC)[C@@H](O)[C@H](C)O2)[C@H](C)[C@@H](O[C@@H]2O[C@H](C)C[C@H](N(C)C)[C@H]2O)[C@](C)(O)C[C@@H](C)C(=O)[C@H](C)[C@@H](O)[C@]1(C)O.N#CS [Erythromycin thiocyanate]	1	1	–	–	–	4.1	0	4.6	0	–	–	58.7	50.6	66.8
C#C[C@]1(O)CC[C@H]2[C@@H]3CCC4=CC(=O)CC[C@@H]4[C@H]3C(=C)C[C@@]21CC [Etonogestrel]	1	1	44.3	47.8	40.7	4.3	0	4.3	0	–	–	–	–	–
CC1(C)O[C@@H]2C[C@H]3[C@@H]4C[C@H](F)C5=CC(=O)C=C[C@]5(C)[C@@]4(F)[C@@H](O)C[C@]3(C)[C@]2(C(=O)CO)O1 [Fluocinolone Acetonide]	1	1	45.5	38.9	52.2	3.5	0	4.0	0	–	–	–	–	–
